Literature values as cited in patent US20130034537A1, “SIMULTANEOUS CO-TREATMENT OF PHYSICAL AND MENTAL SYMPTOMS RELATED TO SEVERE MENTAL DISORDERS BY A SPECIALLY FERMENTED SOY FORMULATION (FSWW08)” (priority 2010, published 2013).

Assays:
immunity = conditions: for Magnitude of immunity, ratio: DHEA = 1
adrenals = conditions: rats
schizophrenic men = conditions: oral 2 mg
[1] = male steroid hormones

## C[C@]12CCC(O)C[C@@H]1CC[C@@H]1[C@@H]2CC[C@]2(C)[C@@H](O)CC[C@@H]12 (stereo partly drawn) [androstanediol]
immunity
  potency in mediating immunity compared to DHEA: 100 times

## C[C@]12CC[C@H](O)CC1=CC[C@@H]1[C@@H]2CC[C@]2(C)C(=O)CC[C@@H]12 [DHEA, dehydroepiandrosterone]
immunity
  Magnitude of immunity, ratio: 1

## O=c1c(-c2ccc(O)cc2)coc2cc(O)cc(O)c12 [genistein]
adrenals
  DHEA production: supporting
  aldosterone production: inhibiting
  corticosterone production: inhibiting

## CCCCC(=O)O[C@H]1CC[C@H]2[C@@H]3CCc4cc(O)ccc4[C@H]3CC[C@]12C [estradiol valeriate]
Schizophrenic men
  patients who failed to increase estradiol levels: 27%
  testosterone: reduce

## C[C@]12CCC(O)CC1=CC(O)[C@@H]1[C@@H]2CC[C@]2(C)C(O)CC[C@@H]12 (stereo partly drawn) [Androstenetriol]
immunity
  Magnitude of immunity, ratio: 1000

## C[C@]12CCC(=O)C[C@@H]1CC[C@@H]1[C@@H]2CC[C@]2(C)[C@@H](O)CC[C@@H]12 [DHT, dihydrotestosterone]
[1]
  activity relative to testosterone: 10 times
